From patent US8435393B2, “Instrument and system for pharmacologic measurement and well vessel used therein” (Panasonic Corporation, priority 2003, dated 2013)

What was measured:
[1] = tested on: carbachol (CCh) sensitive ion channel; assay: Extracellular potential (voltage noise) recording of HEK cells with the instrument of Example 1; assay type: cell-based, human; conditions: HEK-293 cells; Ringer's solution replaced with Ringer's solution containing CCh 100 μM; FIG. 11 between F1 and G1
Experimental: (§1) The solution holding section 17 was filled with a culture fluid and 8000 HEK cells are seeded in the holding section in dispersion. The culture fluid used was HEPES buffer DMEM+10 wt % FBS. A cell was sucked from the back surface to be thereby fitted into the hole and thereafter, the culture fluid was replaced with a measurement solution. A composition of the measurement solution was such that Ringer's solution was contained as a base, a Ca concentration was adjusted to 2 mM and an osmotic pressure was set to […].
FIG. 11 is a graph showing a voltage noise when the above Ringer's solution was replaced with a Ringer's solution containing CCh 100 μM using Example 1. […] It was recognized that a voltage noise is increased by CCh dropping (in FIG. 11, between F1 and G1). On the other hand, in FIG. 12, there is shown results obtained by conducting a similar experiment in a convention method (Comparative Example 1). The measurement was obtained in a procedure in which a first stage amplification in the preamplifier was multiplication by a factor of 100 and thereafter further amplified by a factor of 100. LPF was set at 5 kHz. A medicine (CCh) was dropped only for a time expressed with an open square in the figure.

[2] = tested on: carbachol (CCh) sensitive ion channel; assay: Intracellular potential response of an HEK cell by the patch clamp method (Comparative Example 2); assay type: cell-based, human; conditions: HEK-293 cell expressing CCh sensitive ion channel; CCh 100 μM; in 6 sec after CCh is dropped; glass patch pipette
Experimental: as §1
In FIG. 13, as Comparative Example 2, there is shown results obtained by measurement of a response of an intracellular potential in an HEK cell for the same medicine in a similar way while a glass patch pipette is attached to the cell using a patch clamp method, which is a conventional method for measurement of an intracellular potential. A CCh concentration was 100 μM in a similar way. […] There is observed a noise change (from F to G in FIG. 13) due to a CCh sensitive channel response.

Question: With `C[N+](C)(C)CCOC(N)=O` [CCh, carbachol] as the compound, how does the “Voltage noise change on CCh dropping” value [1] read?
Answer: increased

Question: What about the “Depolarization of intracellular potential” value [2] of the same compound?
Answer: about 10 mV
